Measurements as given in patent US20260216182A1, “PYRIDAZINE NLRP3 INHIBITOR COMPOUND, PHARMACEUTICAL COMPOSITION, AND PREPARATION METHOD THEREFOR AND USE THEREOF” (CHANGCHUN GENESCIENCE PHARMACEUTICAL CO., LTD., priority 2022, published 2026).
Where two headings read alike, the source gives them in different places. Marks after values point to notes of the source that are not given here.

Tests used:
mouse NASH model = assay: Mouse NASH model test (HFD + fructose), combination with semaglutide; type: in vivo, mice
Experimental: Test Example 6 Mouse NASH Model Test
After the animals arrived and acclimatized for 1 week, they were randomly divided into 2 groups. 48 mice were fed a high-fat diet (HFD) and had free access to 15% fructose water (w/w). After the animals were fed for 20 weeks, they were fasted for 6 h, and fasting blood glucose (FBG) was monitored by a blood glucose meter. Orbital blood was taken from all animals, and serum was collected by centrifugation to detect serum ALT levels. Animals were randomly divided into 6 groups according to their body weight, FBG and ALT levels. After that, the high fat feed (HFD) was replaced with the modified high fat feed (mHFD), and the mice had free access to 15% fructose water (v/w). The 8 mice in the other group were fed normal diet and water.
The first end point of the experiment: After 8 weeks of administration, the end point body weight was recorded and the animals were fasted for 6 h, and fasting blood glucose was measured with a blood glucose meter. The mice were then euthanized by CO2 and serum was collected by orbital blood sampling and stored at −80° C. for insulin and biochemical analysis. The animal's liver was taken and the liver weight was recorded. The liver was divided into four parts, one part was quick-frozen in liquid nitrogen for biochemical analysis, one part was placed in tissue fixative for pathological analysis, one part was stored in RNAlater for qPCR detection (backup for later use), and one part was quick-frozen in liquid nitrogen for possible subsequent detection.
The second end point of the experiment: 3 mice were kept in each group for 6 weeks for further observation. The end point body weight was recorded and the mice were fasted for 6 h. Fasting blood glucose was tested with a blood glucose meter. The mice were then euthanized by CO2 and serum was collected by orbital blood sampling and stored at −80° C. for insulin and biochemical analysis. The animal's liver was taken and the liver weight was recorded. The liver was divided into four parts, one part was quick-frozen in liquid nitrogen for biochemical analysis, one part was placed in tissue fixative for pathological analysis, one part was stored in RNAlater for qPCR detection (backup for later use), and one part was quick-frozen in liquid nitrogen for subsequent detection.

[1] = 14-day toxicity experiment on rats: toxicokinetics; type: in vivo, SD rats; conditions: for Cmax / AUC(0-t): SD, rat, plasma, po; for AUC(0-t): read-out: AUC(0-24)
Experimental: (§1) Test Example 7 14-Day Toxicity Experiment on Rats
(§2) SD rats were orally gavaged with compound 062 and the control compound once a day for a total of 14 times. The toxic reactions caused by compound 062 and the control compound were observed and their toxicokinetics were studied.
(§3) Oral gavage. The drug was stirred for at least 30 min prior to administration and continuously stirred throughout the administration. The dosing frequency was once a day for 14 consecutive days, and the dosing amount was 10 mL/kg (the dosing amount was calculated based on the most recent weight).
Different time points before and after administration on D1 and D14.
Group 2 to Group 7: Before dosing and 0.5 h, 1 h, 2 h, 4 h, 8 h and 24 h after dosing (before dosing on D2 and/or D15).
Whole blood was collected into a blood collection tube containing EDTA-K2, the tube was immediately and gently inverted upside down several times to mix the system thoroughly, and placed on crushed ice/ice pack. Blood was centrifuged (2000 g, 10 min) at 4° C. (set temperature, allowable temperature range: 2 to 8° C.) within 1 h after blood collection. The collected plasma was divided into two portions into separate labeled EP tubes (one for testing and one for standby testing), and stored in an ultra-low temperature refrigerator (−70° C. to −90° C.) within 2 h after collection. The samples were stored in dry ice during transportation and transfer.
The drug concentration in plasma was analyzed by using LC-MS/MS, verified blood drug concentration data was provided, and the main toxicokinetic parameters (AUC0-t, Cmax and Tmax) were calculated and compared.

SD rats = assay: 14-day toxicity experiment on rats: safety observations; type: in vivo
From the text: as §1, §2
An appropriate amount of the test compound was weighed (weighed amount=theoretical required amount/content), and fully ground and dispersed in a mortar (agate or ceramic). Then, an appropriate amount of [5% Solutol HS15 in 95% (0.2% CMC-Na)] was added and the mixture was ground until there were no obvious large particles. Then the mortar was cleaned with [5% Solutol HS15 in 95% (0.2% CMC-Na)] in small amounts several times until there was no drug powder residue observed with the naked eye. The mixture was transferred to a suitable container, well stirred and mixed, and the remaining [5% Solutol HS15 in 95% (0.2% CMC-Na)] was further added to the required volume (streaking method). The system was stirred and mixed for at least 20 min, thereby giving the test sample formulation.
as §3
Dosing period: All surviving animals in the main test group were observed twice a day, once before and after dosing respectively, and observed in detail at least once a week.
Observation contents: The main observation contents include (but not limited to) survival status, injection site, skin, hair, eyes, ears, nose, mouth, chest, abdomen, urogenital area, limbs, as well as breathing, movement, urination, defecation, mental or behavioral changes, etc.
Dosing period: All surviving animals were weighed at least once a week. The body weight of animals in the toxicokinetics (TK) group was only used to calculate the dosage. The body weight data were not statistically analyzed and were only presented as individual data in the summary report.
Dosing period: The food intake of the surviving animals in the main test group was weighed at least once a week, and the average food intake was expressed in g/animal/day.
• End of dosing period: once; • Blood sampling route: abdominal aorta; • Animals: Plan to dissect surviving animals; • Blood was collected into tubes containing anticoagulant (EDTA-K2), and hematological indices were detected using a Sysmex XN-1000V fully automatic blood analyzer; blood was collected into anticoagulant tubes containing sodium citrate, and coagulation indices were detected using a Sysmex CS-5100 coagulometer. The specific detection indices are as follows:
• End of dosing period: once; • Blood sampling route: abdominal aorta; • Animals: Plan to dissect surviving animals; • The animals were fasted overnight, and whole blood was collected into a test tube containing a coagulant and a separation gel. Serum was obtained by centrifugation, and serum biochemical indices were detected using a Hitachi-7180 biochemical analyzer. The specific detection indices are as follows:
• Dissection time: end of dosing period (D15); • Anesthesia method: The specifications of the anesthetic mixture are ketamine of 37.5 mg/mL and xylazine of 2.5 mg/mL. The euthanasia dose is 2-4 mL/kg of the mixture (the anesthetic dose of the animal planned for dissection is calculated based on the body weight after fasting overnight, the concentration will be recorded in the original record and presented in the summary report, and the dose can be adjusted according to the anesthetic effect) by intraperitoneal injection. […]

[2] = 30 mg/kg, 30 mpk oral, Day 1, plasma
[3] = 30 mg/kg, 30 mpk oral, Day 14, plasma
[4] = 60 mg/kg, 60 mpk oral, Day 1, plasma
[5] = 60 mg/kg, 60 mpk oral, Day 14, plasma
[6] = 100 mg/kg, 100 mpk oral, Day 1, plasma
[7] = 100 mg/kg, 100 mpk oral, Day 14, plasma

What does the source list for `CC#Cc1ccc2c(-c3ccc(Cl)cc3O)nnc(NC[C@H](O)CO)c2c1` [Compound 062, (S)-3-((4-(4-chloro-2-hydroxyphenyl)-7-(prop-1-yn-1-yl)phthalazin-1-yl)amino) propan-1,2-diol]?
rebound of mouse body weight after drug withdrawal (mouse NASH model; combination with 0.025 mpk semaglutide, FIG. 5): significantly inhibited the rebound of mouse body weight after drug withdrawal; food intake (mouse NASH model; combination with 0.025 mpk semaglutide, FIG. 6): without affecting food intake; levels of ALT, AST, LDL and HDL after drug withdrawal (mouse NASH model; serum, combination with 0.025 mpk semaglutide, FIG. 7): significantly inhibited the levels of ALT, AST, LDL and HDL after drug withdrawal; exposure in the high-dose group relative to the control compound ([1]; 100 mg/kg high-dose group): 4.8 times; Cmax [1, 2]: 19900 ng/mL; AUC(0-t) [1, 2]: 279 µg·h/mL; Cmax [1, 3]: 31700 ng/mL; AUC(0-t) [1, 3]: 384 µg·h/mL; Cmax [1, 4]: 41100 ng/mL; AUC(0-t) [1, 4]: 622 µg·h/mL; Cmax [1, 5]: 68600 ng/mL; AUC(0-t) [1, 5]: 1120 µg·h/mL; Cmax [1, 6]: 68200 ng/mL; AUC(0-t) [1, 6]: 1120 µg·h/mL; Cmax [1, 7]: 127000 ng/mL; AUC(0-t) [1, 7]: 2120 µg·h/mL; safety (conclusion in words) (SD rats; 14-day rat study): good safety; Death/moribundity (SD rats; 30, 60, 100 mg/kg/day oral, 14 days): None; safety compared with the control compound (SD rats; exposure in high-dose group 4.8 times that of control compound): much better than that of the control compound

For `CC(C)(O)CNc1nnc(-c2ccc(Cl)cc2O)c2ccncc12` [Control compound], which “rebound of body weight after drug withdrawal” value (mouse NASH model; control compound combined with semaglutide) is on record?
Its value is “neither the control compound combined with semaglutide nor the groups of low/high dose semaglutide alone inhibited the rebound of body weight”.

And the Cmax [1, 2]?
The Cmax was 17500 ng/mL.

And the AUC(0-t) [1, 2]?
The AUC(0-t) was 248 µg·h/mL.

What about the Cmax [1, 3] of the same molecule?
Its Cmax is 13200 ng/mL.

And the AUC(0-t) [1, 3]?
Its AUC(0-t) is 202 µg·h/mL.

And the Cmax [1, 4]?
Its Cmax is 21400 ng/mL.

What about the AUC(0-t) [1, 4] of the same molecule?
Its AUC(0-t) is 360 µg·h/mL.

And the Cmax [1, 5]?
The Cmax was 22400 ng/mL.

What about the AUC(0-t) [1, 5] of the same molecule?
The AUC(0-t) was 324 µg·h/mL.

And the Cmax [1, 6]?
The Cmax was 24000 ng/mL.

What about the AUC(0-t) [1, 6] of the same molecule?
Its AUC(0-t) is 405 µg·h/mL.

And the Cmax [1, 7]?
Its Cmax is 26700 ng/mL.

What about the AUC(0-t) [1, 7] of the same molecule?
Its AUC(0-t) is 439 µg·h/mL.

And the “animals with swelling of the left and right hind limbs and ears, females” value (SD rats; 30 mg/kg)?
The value was 2/5.

And the “animals with swelling of the left and right hind limbs and ears, males” value (SD rats; 30 mg/kg)?
Its value is 4/5.

What about the “Gross anatomy, animals with unplanned autopsy (dead animals)” value (SD rats; 100 mg/kg) of the same molecule?
Its value is “showed discoloration of the lungs and/or liver”.

What about the “weight loss before death vs before dosing, animal 4006#” value (SD rats; 100 mg/kg, male, TK group, found dead D 6) of the same molecule?
The value was “weight loss (vs before dosing: ↓28.4%)”.

What about the “body weight decrease before death vs before dosing, animal 4101#” value (SD rats; 100 mg/kg, male, found dead D 4) of the same molecule?
Its value is “↓6.25%); before death, animal 4006# showed”.

What about the “body weight reduction vs. control group” value (SD rats; D 7, high (100 mg/kg)) of the same molecule?
Its value is 22.5%.

What about the “body weight reduction vs. control group” value (SD rats; D 7, low (30 mg/kg)) of the same molecule?
The value was 7.7%.

And the “body weight reduction vs. control group” value (SD rats; D 7, medium (60 mg/kg))?
The value was 16.7%.

What about the “body weight reduction vs. control group” value (SD rats; D 14, high (100 mg/kg)) of the same molecule?
Its value is 23.3%.

And the “body weight reduction vs. control group” value (SD rats; D 14, low (30 mg/kg))?
The value was 8.5%.

What about the “body weight reduction vs. control group” value (SD rats; D 14, medium (60 mg/kg)) of the same molecule?
Its value is 14.6%.

What about the “#NEU increase” value (SD rats; females, high (100 mg/kg)) of the same molecule?
The value was 687.1%.

What about the MONO % increase (SD rats; females, high (100 mg/kg)) of the same molecule?
The MONO % increase was 290.3%.

And the “#MONO increase” value (SD rats; females, low (30 mg/kg))?
Its value is 187.7%.

What about the MONO % increase (SD rats; females, low (30 mg/kg)) of the same molecule?
Its MONO % increase is 63.6%.

And the “#MONO increase” value (SD rats; females, medium (60 mg/kg))?
The value was 237.0%.

What about the “#NEU increase” value (SD rats; females, medium (60 mg/kg)) of the same molecule?
Its value is 251.8%.

And the MONO % increase (SD rats; females, medium (60 mg/kg))?
The MONO % increase was 100.6%.

And the “ALB reduction vs. control group” value (SD rats; females, ≥100 mg/kg)?
The value was “females: at dose ≥100 mg/kg, ALB (↓28.5%)”.

What about the “GLO increase vs. control group” value (SD rats; females, ≥100 mg/kg) of the same molecule?
The value was “GLO (: ↑ 61.3%) was significantly increased”.

And the “#MONO increase vs. control group” value (SD rats; males, high (100 mg/kg))?
Its value is 313.0%.

What about the “#MONO increase vs. control group” value (SD rats; males, low (30 mg/kg)) of the same molecule?
Its value is “#MONO increased (low: ↑ 154.4%,”.

And the “#MONO increase vs. control group” value (SD rats; males, medium (60 mg/kg))?
The value was 215.8%.

What about the “#EOS increase vs. control group” value (SD rats; males, ≥100 mg/kg) of the same molecule?
Its value is 816.7%.

What about the “MONO % increase vs. control group” value (SD rats; males, ≥100 mg/kg) of the same molecule?
The value was 160.3%.

And the “body weight gain vs. control group” value (SD rats; ≥30 mg/kg, males and females)?
The value was “low body weight gain”.
